Values joined by “and” are separate entries in the source; they are usually repeats but may differ in a detail not shown here. Equal entries are not always repeated. Where two headings read alike, the source gives them in different places.
Biological target: T1, chymotrypsin-like activity of the purified rabbit 20S proteasome (Oryctolagus cuniculus, UniProt G1T4Q9)
T1 sequence (G1T4Q9 1-263): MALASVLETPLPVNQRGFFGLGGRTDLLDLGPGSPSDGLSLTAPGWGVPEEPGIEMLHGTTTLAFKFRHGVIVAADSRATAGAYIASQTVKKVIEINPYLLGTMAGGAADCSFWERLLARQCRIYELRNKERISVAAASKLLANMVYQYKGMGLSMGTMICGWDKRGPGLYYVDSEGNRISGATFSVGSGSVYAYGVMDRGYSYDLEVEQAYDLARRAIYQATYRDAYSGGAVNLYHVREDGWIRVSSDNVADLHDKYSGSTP
Experiment: 20S proteasome inhibition assay, fluorogenic substrate Suc-Leu-Leu-Val-Tyr-AMC;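 note: enzyme and 20 µM substrate incubated 1 h at 37 °C in Tris-HCl buffer pH 7.6, fluorogenic read-out, inhibition calculated against vehicle control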
Assay type: biochemical
Details: for proteasome inhibitory activity, SAR statement in words: chymotrypsin-like activity, compared with lead or analogue

[1] = individual determinations (runs M-1096, M-1098, M-1099, AK or dated), read-out: Chymotrypsin-like Activity IC50
[2] = mean of the individual determinations, read-out: Chymotrypsin-like Activity IC50 (μM), mean ± spread (n)
[3] = 30 μM, runs M-1096, M-1098, M-1099

| Compound | IC50 [1] | also measured |
| --- | --- | --- |
| CCOC(=O)CSc1cc(NS(=O)(=O)c2cccs2)c2ccccc2c1O [9a, Ethyl 2-(1-hydroxy-4-(thiophene-2-sulfonamido)naphthalen-2-ylthio)acetate] |  | proteasome inhibitory activity, SAR statement in words: reduced compared to acid analogues |
| COC(=O)CCSc1cc(NS(=O)(=O)c2cc(Cl)c(Cl)s2)c2ccccc2c1O [HL4-098-3, Methyl-3-(4-(4,5-dichlorothiophene-2-sulfonamido)-1-hydroxynaphthalen-2-ylthio)propanoate] | 0.81 µM and 1.5 µM and 1.52 µM and 0.9 µM |  |
| CNC(=O)CCSc1cc(NS(=O)(=O)c2cccs2)c2ccccc2c1O [HL4-100-2, 3-(1-hydroxy-4-(thiophene-2-sulfonamido)naphthalen-2-ylthio)-N-methylpropanamide] | > 10 µM |  |
| O=C(CCSc1cc(NS(=O)(=O)c2cccs2)c2ccccc2c1O)NC1CC1 [HL4-100-3, N-cyclopropyl-3-(1-hydroxy-4-(thiophene-2-sulfonamido)naphthalen-2-ylthio)propanamide] | 8.6 µM and 6 µM and > 10 µM | IC50 [2]: 7.3 µM |
| O=C1C=C(O)C(=O)c2ccccc21 [S.M. of YL2-013, 2-hydroxynaphthalene-1,4-dione] | > 10 µM |  |
| CCOC(=O)CSC1=C(SCC(=O)OCC)C(=O)c2ccccc2C1=O [YG1-017] | > 30 µM and 48 µM and > 100 µM | Chymotrypsin-like Activity Inhib at 100 μM (100 μM): 57% and 36% |
| CCOC(=O)CSC1=CC(=O)c2ccccc2C1=O [YG1-059, Ethyl 2-(1,4-dioxo-1,4-dihydronaphthalen-2-ylthio)acetate] | > 100 µM | inhibition at 30 µM [3]: 49% |
| O=S(=O)(Nc1cc(SCCO)c(O)c2ccccc12)c1cccs1 [YG1-087-2, N-(4-hydroxy-3-(2-hydroxyethylthio)naphthalen-1-yl)thiophene-2-sulfonamide] | > 10 µM | proteasome inhibitory activity, SAR statement in words: the inhibitory activity totally lost |
| CCOC(=O)CSc1cc(NS(=O)(=O)c2cccs2)c2ccccc2c1O [YG1-094-2] | 2.67 µM and 9.65 µM and 9.5 µM |  |
| COC(=O)CCSc1cc(NS(=O)(=O)c2cccs2)c2ccccc2c1O [YG1-107] | 2.28 µM and 2.26 µM and 6.6 µM and 3.9 µM and 7.1 µM and 7.7 µM |  |
| COC(=O)CCSC1=C/C(=N\S(=O)(=O)c2cccs2)c2ccccc2C1=O [YG1-112] | 2.2 µM and 5.9 µM and 6.1 µM and > 10 µM (2×) and 6 µM and 3 µM | IC50 [2]: 4.64 µM |
| O=C(O)CSc1cc(NS(=O)(=O)c2ccccc2)c2ccccc2c1O [YG1-117, 2-(1-hydroxy-4-(phenylsulfonamido)naphthalen-2-ylthio)acetic acid] | 0.68 µM and 2.71 µM and 2.9 µM and 1.9 µM and 2.2 µM | IC50 (value quoted in running text / FIG. 11, read-out: IC50 against chymotrypsin-like proteasome activity): 2.08 µM |
| CCOC(=O)CS(=O)(=O)c1cc(NS(=O)(=O)c2cccs2)c2ccccc2c1O [YG1-133, Ethyl 2-(1-hydroxy-4-(thiophene-2-sulfonamido)naphthalen-2-ylsulfonyl)acetate] | 8.2 µM and > 10 µM (2×) |  |
| O=C(O)CS(=O)(=O)c1cc(NS(=O)(=O)c2cccs2)c2ccccc2c1O [YG1-134, 2-(1-hydroxy-4-(thiophene-2-sulfonamido)naphthalen-2-ylsulfonyl)acetic acid] | > 10 µM | proteasome inhibitory activity, SAR statement in words: loss or reduction of the inhibitory activity |
| CCOC(=O)CSc1cc(NS(=O)(=O)c2ccc([N+](=O)[O-])cc2)c2ccccc2c1O [YG1-148F5, Ethyl 2-(1-hydroxy-4-(4-nitrophenylsulfonamido)naphthalen-2-ylthio)acetate] | 0.82 µM and 4.55 µM and 5.36 µM | proteasome inhibitory activity, SAR statement in words: slightly enhanced the activity |
| CCOC(=O)CSC1=C/C(=N\S(=O)(=O)c2ccc(-c3ccccc3)cc2)c2ccccc2C1=O [YG2-011] | > 10 µM |  |
| CCOC(=O)CSC1=C/C(=N\S(=O)(=O)Cc2ccc(Cl)cc2)c2ccccc2C1=O [YG2-019, Ethyl 2-(4-(4-chlorobenzylsulfonylimino)-1-oxo-1,4-dihydronaphthalen-2-ylthio)-acetate] | 6.9 µM and 7.6 µM and > 10 µM (4×) | IC50 [2]: 7.25 µM |
| O=C(O)CSc1cc(NS(=O)(=O)c2ccc(Cl)cc2)c2ccccc2c1O [YG2-034-1, 2-(4-(4-chlorophenylsulfonamido)-1-hydroxynaphthalen-2-ylthio)acetic acid] | > 10 µM and 3.44 µM and 4.15 µM |  |
| CC(C)(C)OC(=O)COc1ccc(NS(=O)(=O)c2cccs2)c2ccccc12 [YG2-080, tert-butyl 2-(4-(thiophene-2-sulfonamido)naphthalen-1-yloxy)acetate] | > 10 µM |  |

Second part, led by results:

| IC50 [1] | Compound | also measured |
| --- | --- | --- |
| 4.7 µM and 9.65 µM and 9.56 µM and 8.5 µM and > 10 µM | CN(C)C(=O)CCSC1=C/C(=N\S(=O)(=O)c2cccs2)c2ccccc2C1=O [HL4-078-1, N,N-dimethyl-3-(1-oxo-4-(thiophen-2-ylsulfonylimino)-1,4-dihydronaphthalen-2-ylthio)propanamide] | IC50 [2]: 8.1 µM |
| 8.1 µM and > 10 µM (2×) | CNC(=O)CCSC1=C/C(=N\S(=O)(=O)c2cccs2)c2ccccc2C1=O [HL4-078-2, N-methyl-3-(1-oxo-4-(thiophen-2-ylsulfonylimino)-1,4-dihydronaphthalen-2-ylthio)propanamide] |  |
| 5.5 µM and 8.65 µM and > 10 µM (2×) | O=C(CCSC1=C/C(=N\S(=O)(=O)c2cccs2)c2ccccc2C1=O)NC1CC1 [HL4-078-3, N-cyclopropyl-3-(1-oxo-4-(thiophen-2-ylsulfonylimino)-1,4-dihydronaphthalen-2-ylthio)propanamide] | IC50 [2]: 8.05 µM |
| > 10 µM | CN(C)C(=O)CCSc1cc(NS(=O)(=O)c2cccs2)c2ccccc2c1O [HL4-100-1, 3-(1-hydroxy-4-(thiophene-2-sulfonamido)naphthalen-2-ylthio)-N,N-dimethylpropanamide] |  |
| > 30 µM and > 100 µM and 35 µM | O=S(=O)(Nc1ccc(O)c2ccccc12)c1cccs1 [YG1-004, N-(4-hydroxynaphthalen-1-yl)thiophene-2-sulfonamide] | Chymotrypsin-like Activity Inhib at 100 μM (100 μM): 44% and 67%; proteasome inhibitory activity, SAR statement in words: loss of the inhibitory activity |
| > 30 µM and 45 µM and 36 µM | O=S(=O)(Nc1cc(Cl)c(O)c2ccccc12)c1cccs1 [YG1-012, N-(3-chloro-4-hydroxynaphthalen-1-yl)thiophene-2-sulfonamide] | Chymotrypsin-like Activity Inhibition at 30 μM [3]: 41% and 45%; inhibition at 30 µM [3]: 33%; Chymotrypsin-like Activity Inhib at 100 μM (100 μM): 97%; inhibition at 100 µM (100 μM, read-out: Chymotrypsin-like Activity Inhib at 100 μM): 82% |
| > 30 µM and > 100 µM and 28 µM | O=S(=O)(Nc1cc(Br)c(O)c2ccccc12)c1cccs1 [YG1-034, N-(3-bromo-4-hydroxynaphthalen-1-yl)thiophene-2-sulfonamide] |  |
| 1.6 µM and > 10 µM and 2.8 µM and 3 µM and 1.5 µM and 2.5 µM | CCOC(=O)CSC1=C/C(=N\S(=O)(=O)c2cccs2)c2ccccc2C1=O [YG1-094] | IC50 [2]: 2.28 µM |
| > 10 µM | CCOC1=C/C(=N\S(=O)(=O)c2cccs2)c2ccccc2C1=O [YG1-122, N-(3-ethoxy-4-oxonaphthalen-1(4H)-ylidene)thiophene-2-sulfonamide] |  |
| > 10 µM | CN(C)C1=C/C(=N\S(=O)(=O)c2cccs2)c2ccccc2C1=O [YG1-125, N-(3-(dimethylamino)-4-oxonaphthalen-1(4H)-ylidene)thiophene-2-sulfonamide] |  |
| > 10 µM | O=C1C(N2CCN(c3ccccn3)CC2)=C/C(=N\S(=O)(=O)c2cccs2)c2ccccc21 [YG1-130] |  |
| > 10 µM | O=C(O)c1cccc(NC2=C/C(=N\S(=O)(=O)c3cccs3)c3ccccc3C2=O)c1 [YG1-174, 3-(1-oxo-4-(thiophen-2-ylsulfonylimino)-1,4-dihydronaphthalen-2-ylamino)-benzoic acid] |  |
| 4 µM and 4.7 µM and 4.2 µM and > 10 µM | CCOC(=O)CSC1=C/C(=N\S(=O)(=O)c2ccc(C)cc2)c2ccccc2C1=O [YG2-014, Ethyl 2-(1-oxo-4-(tosylimino)-1,4-dihydronaphthalen-2-ylthio)acetate] | IC50 [2]: 4.3 µM |
